Reference: patent US20210127673A1, “HERBICIDES” (SYNGENTA PARTICIPATIONS AG, priority 2016, published 2021)

Legend:
Assay type in all cases: in vivo
Conditions in all cases: evaluated after 13 days
Lolium perenne (LOLPE) [1] = experiment: Post-emergence herbicidal activity, Lolium perenne; parameters: key: 5=total damage to plant; 0=no damage to plant
Method in brief: (§1)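 Scores (0 no damage to 5 total damage) read 13 d after spraying. Plants sprayed post-emergence 8 d after sowing; spray solution acetone/water 50:50 with 0.5% Tween 20. Growth at 24/16 °C day/night, 14 h light, 65% RH, twice-daily watering.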

Avena fatua (AVEFA) [2] = experiment: Pre-emergence herbicidal activity, Avena fatua; parameters: key: 5=total damage to plant; 0=no damage to plant
Method in brief: (§2)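 Seeds sown in standard soil in pots, grown one day in a glasshouse (24/16 °C day/night, 14 h light, 65% humidity), then sprayed pre-emergence with compound in acetone/water (50:50) containing 0.5% Tween 20. Plants were scored after 13 days on a 0–5 scale (5 = total damage, 0 = none).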

[3] = test system: Triticum aestivium (TRZAW); experiment: Pre-emergence herbicidal activity, Triticum aestivium; parameters: key: 5=total damage to plant; 0=no damage to plant
Method in brief: as §2

Setaria faberi (SETFA) [4] = experiment: Post-emergence herbicidal activity, Setaria faberi; parameters: key: 5=total damage to plant; 0=no damage to plant
Method in brief: as §1

[5] = test system: Triticum aestivium (TRZAW); experiment: Post-emergence herbicidal activity, Triticum aestivium; parameters: key: 5=total damage to plant; 0=no damage to plant
Method in brief: as §1

[6] = test system: Alopecurus myosuroides (ALOMY); experiment: Pre-emergence herbicidal activity, Alopecurus myosuroides; parameters: key: 5=total damage to plant; 0=no damage to plant
Method in brief: as §2

[7] = test system: Echinochloa crus-galli (ECHCG); experiment: Pre-emergence herbicidal activity, Echinochloa crus-galli
Method in brief: as §2

Avena fatua (AVEFA) [8] = experiment: Post-emergence herbicidal activity, Avena fatua
Method in brief: as §1

Setaria faberi (SETFA) [9] = experiment: Pre-emergence herbicidal activity, Setaria faberi; parameters: key: 5=total damage to plant; 0=no damage to plant
Method in brief: as §2

Lolium perenne (LOLPE) [10] = experiment: Pre-emergence herbicidal activity, Lolium perenne; parameters: key: 5=total damage to plant; 0=no damage to plant
Method in brief: as §2

[11] = test system: Echinochloa crus-galli (ECHCG); experiment: Post-emergence herbicidal activity, Echinochloa crus-galli; parameters: key: 5=total damage to plant; 0=no damage to plant
Method in brief: as §1

[12] = test system: Alopecurus myosuroides (ALOMY); experiment: Post-emergence herbicidal activity, Alopecurus myosuroides; parameters: key: 5=total damage to plant; 0=no damage to plant
Method in brief: as §1

SMILES	Control of LOLPE after post-emergence application (score 0-5) (Lolium perenne (LOLPE) [1]; 250 g/ha)	Control of AVEFA after pre-emergence application (score 0-5) (Avena fatua (AVEFA) [2]; 250 g/ha)	Control of TRAZW after pre-emergence application (score 0-5) ([3]; 250 g/ha)	Control of SETFA after post-emergence application (score 0-5) (Setaria faberi (SETFA) [4]; 250 g/ha)	Control of TRAZW after post-emergence application (score 0-5) ([5]; 250 g/ha)	Control of ALOMY after pre-emergence application (score 0-5) ([6]; 250 g/ha)	Control of ECHCG after pre-emergence application (score 0-5) ([7]; 250 g/ha)	Control of AVEFA after post-emergence application (score 0-5) (Avena fatua (AVEFA) [8]; 250 g/ha)	Control of LOLPE after post-emergence application (score 0-5) (Lolium perenne (LOLPE) [1]; 1000 g/ha)	Control of AVEFA after pre-emergence application (score 0-5) (Avena fatua (AVEFA) [2]; 1000 g/ha)	Control of TRAZW after pre-emergence application (score 0-5) ([3]; 1000 g/ha)	Control of SETFA after post-emergence application (score 0-5) (Setaria faberi (SETFA) [4]; 1000 g/ha)	Control of TRAZW after post-emergence application (score 0-5) ([5]; 1000 g/ha)	Control of ALOMY after pre-emergence application (score 0-5) ([6]; 1000 g/ha)	Control of ECHCG after pre-emergence application (score 0-5) ([7]; 1000 g/ha)	Control of AVEFA after post-emergence application (score 0-5) (Avena fatua (AVEFA) [8]; 1000 g/ha)	Control of SETFA after pre-emergence application (score 0-5) (Setaria faberi (SETFA) [9]; 1000 g/ha)	Control of LOLPE after pre-emergence application (score 0-5) (Lolium perenne (LOLPE) [10]; 1000 g/ha)	Control of ECHCG after post-emergence application (score 0-5) ([11]; 1000 g/ha)	Control of ALOMY after post-emergence application (score 0-5) ([12]; 1000 g/ha)	other results
CCCCN(C)C(=O)Nc1ccc(-c2cncc(F)c2)nc1C(F)(F)F [Compound B95]	1	0	0	5	0	0	1	3													Control of SETFA after pre-emergence application (score 0-5) (Setaria faberi (SETFA) [9]; 250 g/ha): 4; Control of LOLPE after pre-emergence application (score 0-5) (Lolium perenne (LOLPE) [10]; 250 g/ha): 1; Control of ECHCG after post-emergence application (score 0-5) ([11]; 250 g/ha): 2; Control of ALOMY after post-emergence application (score 0-5) ([12]; 250 g/ha): 0
O=C(Nc1cc(Cl)cc(Cl)c1)Nc1ccc(-c2cncc(F)c2)nc1C(F)(F)F [Compound B88]	0	0	0	1	0	0	1	1													Control of SETFA after pre-emergence application (score 0-5) (Setaria faberi (SETFA) [9]; 250 g/ha): 2; Control of LOLPE after pre-emergence application (score 0-5) (Lolium perenne (LOLPE) [10]; 250 g/ha): 2; Control of ECHCG after post-emergence application (score 0-5) ([11]; 250 g/ha): 1; Control of ALOMY after post-emergence application (score 0-5) ([12]; 250 g/ha): 0
O=C(Nc1ccc(-c2cncc(F)c2)nc1C(F)(F)F)N1CCOCC1 [Compound B39]									3	3	0	5	1	0	4	4	5	1	5	1	
CC(C)c1cc(NC(=O)Nc2ccc(-c3cncc(F)c3)nc2C(F)(F)F)on1 [Compound B40]									1	0	0	3	0	0	1	2	1	1	1	0	
N#CCCOC(=O)Nc1ccc(-c2cncc(F)c2)nc1C(F)(F)F [Compound B62]									2	2	0	4	0	1	3	3	3	1	5	0	
O=C(NCc1ccc(Cl)cc1)Nc1ccc(-c2cncc(F)c2)nc1C(F)(F)F [Compound B38]									2	0	0	4	0	0	1	2	3	0	2	0	
NC(=O)Nc1ccc(-c2cncc(F)c2)nc1C(F)(F)F [Compound B47]									2	1	0	5	0	0	4	3	5	1	4	0	
CC(C)(C)COC(=O)Nc1ccc(-c2cncc(F)c2)nc1C(F)(F)F [Compound B91]	1	1	1	5	0	0	2	2													Control of SETFA after pre-emergence application (score 0-5) (Setaria faberi (SETFA) [9]; 250 g/ha): 5; Control of LOLPE after pre-emergence application (score 0-5) (Lolium perenne (LOLPE) [10]; 250 g/ha): 1; Control of ECHCG after post-emergence application (score 0-5) ([11]; 250 g/ha): 2; Control of ALOMY after post-emergence application (score 0-5) ([12]; 250 g/ha): 0
CC(C)(C)OC(=O)Nc1ccc(-c2cncc(F)c2)nc1C#N [Compound B34, tert-butyl N-[2-cyano-6-(5-fluoro-3-pyridyl)-3-pyridyl]carbamate]									1	0	0	4	1	0	4	2	5	1	5	0	
CSc1cncc(-c2ccc(NC(=O)OC(C)(C)C)c(C)n2)c1 [Compound B12]									2	1	0	3	1	1	1	2	3	1	2	1	
